Laboratory results as given in patent US10806798B2, “Compound with effects of thrombolysis, free radical scavenging and thrombus-targeting” (Shanghai Lumosa Therapeutics Co., Ltd., priority 2012, dated 2020).
Marks after values point to notes of the source that are not given here. Side chains are listed from the residue outwards. Ends that are not written are not given here.

Tests used:
[1] = system: NO free radicals (acetylcholine induced vasodilation); experiment: NO radical scavenging: inhibition of acetylcholine induced vasodilation of aorta rings; design: species or system Wistar rats; details: final concentration 5×10^−6 M; n = 6
Method: Male Wistar rats weighing 250 to 300 g were starved for 12 h before operation with free access to drinking water, and sacrificed by cervical dislocation. Thoracotomy was immediately carried out and thoracic aorta was taken out, connective tissues attached thereto were dissected, and vessels were cut into aorta rings with a length of 3 to 5 mm and placed into a perfusion bath. The bath contained 15 ml Krebs-Henseleit solution and was kept at a constant temperature of 37° C., into which 95% O2-5% CO2 gas was charged. The anchor to which the aorta rings were immobilized was connected to a tension transducer, and vasomotion curves were recorded on a dual-trace recorder at a paper speed of 1 mm/min. With the static tension adjusted to 1.0 g and 30 min of equilibration, norepinephrine at a final concentration of 10^−8 M was dosed to allow the aorta to contract for preexcitation. Norepinephrine was washed off, followed by 30 min of equilibration, and norepinephrine was added into the bath to a final concentration of 10^−8 M. When the contraction tension was steady at a plateau level, 20 μl normal saline (blank), a 20 μl solution of any one of compounds Ia to Il in normal saline (at a final concentration of 5×10^−6 M), or a 20 μl solution of NO free radical scavenger (1,3-dioxo-2-(4′-oxyacetoxyl-phenyl)-4,4,5,5-tetramethylimidazoline, TMMZ) in normal saline (at a final concentration of 5×10^−6 M) was added into the bath. When stabilized, a 20 μl acetylcholine in normal saline was added (at a final concentration of 10^−6 M). The NO scavenging ability of the drugs was expressed as a percentage of inhibition of acetylcholine induced vasodilation.

thrombus = experiment: In vivo anti-thrombus experiment (arteriovenous cannula with thread); design: species or system SD rats; details: 0.1 μmol/kg by gavage; n = 11
Method: SD rats (male, 220 to 230 g) were randomly divided into groups with 11 rats in each group. The rats were fed at a resting state for 1 day and fasted overnight. […] After 30 min, the rats were anesthetized with a 20% urethane solution, and the right carotid artery and the left carotid vein were dissected. A cannula was filled with sodium heparin in normal saline, and one end thereof was inserted into the left vein, while the other end was injected with a certain amount of sodium heparin for anticoagulation with an injector and then inserted into the right artery. Blood flew from the right artery to the left vein through the polyethylene tubing, and the thread attached with thrombus was taken out after 15 min and the weight thereof was recorded. The wet thrombus weight was determined by subtracting the thread weight from the total weight.

rats with stroke = experiment: Immediate treatment after stroke onset, neural function scores (Zealonga method, 0 no loss to 5 death); format: in vivo, SD rats; details: 0.1 μmol/kg, 24 h after awake, n = 10
Method: The in vivo anti-stroke activity of the present invention was represented by neural function scores, with a lower score indicating higher activity. A 10% chloral hydrate solution (400 mg/kg) was injected intraperitoneally into SD male rats (250-300 g) for anesthesia. An open incision of 2 cm in length was longitudinally made slightly on the right to the center of the neck, and the right common carotid artery trunk, carotid external artery and carotid internal artery were dissected along the margin of the inner side of sternocleidomastoid muscles. The open incisions in the carotid internal artery and the proximal end of the common carotid artery were occluded respectively with noninvasive arterial clips. A small open incision was made across the carotid external artery, and the distal end of the carotid external artery was ligated. The arterial clip at the proximal end of the carotid external artery was released, and 10 μl blood was drawn before the proximal end of the common carotid artery was again occluded with the noninvasive arterial clip. The 10 μl blood drawn was placed in a 1 mL EP vial and kept at RT for 30 min for coagulation of blood, and then transferred into a −20° C. refrigerator for 1 h to allow coagulation. After 1 h, the blood clots were taken out, into which 1 mL saline was added, and then broken into uniform microthrombus by using a steel spatula. The microthrombus suspension was then transferred to a 1 mL injector until use. At the same time when the clip on the carotid internal artery of the rat was released, 1 mL thrombus suspension in the injector was slowly injected from the carotid external artery of the rat to its proximal end, and the suspension was injected into the brain of the rat through the carotid internal artery. Subsequently, the proximal end of the carotid external artery was ligated, the arterial clips on the carotid internal artery and the common carotid artery were released, and blood flow was restored. The jugular common vein of the rats was dissected. The vein was immediately ligated, 3 drops of penicillin was dropped at the wound site, the wound was stitched up, and the animals were allowed to come around, as the sham operation group. Or injection of urokinase in normal saline (positive control group, at a dosage of 20000 IU/kg), normal saline (blank control group, at a dosage of 3 ml/kg), TMMZ in normal saline (component control group, at a dosage of 1 μmol/kg), a thrombolytic peptide ARPAK (SEQ. ID NO. 4), GRPAK (SEQ. ID NO. 5), RPAK (SEQ. ID NO. 3) or PAK in normal saline (component control group, at a dosage of 1 μmol/kg), or one of compounds Ia-Il in normal saline (at a dosage of 0.1 μmol/kg) was carried out. 24 h after the rats were awake, the degree of damage in the neural function was evaluated by the Zealonga method. A score of 0 indicated no sign of loss in neural function, 1 indicated the front limbs on the undamaged side could not stretch out, 2 indicated walking toward the undamaged side, 3 indicated tail-chasing walking in circles toward the undamaged side, 4 indicated involuntary walking with disturbance of consciousness, and 5 indicated death.

| Substance | Percentage of inhibition (Mean ± SD %) of vasodilatation induced by acetylcholine [1] | Wet weight of thrombus (Mean ± SD mg) (thrombus) | Neural function scores (Mean ± SD) (rats with stroke) |
| --- | --- | --- | --- |
| 1,3-dioxo-2-{4′-oxyacetyl-[N^ω-(Ala-Arg-Pro-Ala-Lys)-Lys-Arg-Gly-Asp-Phe]phenyl}-4,4,5,5-tetramethylimidazoline [Ic] | 21.78% | 20.50 ± 2.26 mg | 0.89 ± 1.36 ^c |
| 1,3-dioxo-2-{4′-oxyacetyl-[N^ω-(Ala-Arg-Pro-Ala-Lys)-Lys-Arg-Gly-Asp-Ser]phenyl}-4,4,5,5-tetramethylimidazoline [Ia] | 22.82% | 24.32 ± 2.10 mg | 1.00 ± 1.01 ^b |
| 1,3-dioxo-2-{4′-oxyacetyl-[N^ω-(Ala-Arg-Pro-Ala-Lys)-Lys-Arg-Gly-Asp-Val]phenyl}-4,4,5,5-tetramethylimidazoline [Ib] | – | 20.14 ± 2.45 mg | 0.56 ± 1.01 ^c |
| 1,3-dioxo-2-{4′-oxyacetyl-[N^ω-(Arg-Pro-Ala-Lys)-Lys-Arg-Gly-Asp-Phe]phenyl}-4,4,5,5-tetramethylimidazoline [Ii] | 13.75% | 17.79 ± 2.02 mg | 0.87 ± 1.05 ^c |
| 1,3-dioxo-2-{4′-oxyacetyl-[N^ω-(Arg-Pro-Ala-Lys)-Lys-Arg-Gly-Asp-Ser]phenyl}-4,4,5,5-tetramethylimidazoline [Ig] | 24.40% | 17.89 ± 2.05 mg | 1.00 ± 1.19 ^b |
| 1,3-dioxo-2-{4′-oxyacetyl-[N^ω-(Arg-Pro-Ala-Lys)-Lys-Arg-Gly-Asp-Val]phenyl}-4,4,5,5-tetramethylimidazoline [Ih] | – | 18.24 ± 1.89 mg | 1.33 ± 1.22 ^b |
| 1,3-dioxo-2-{4′-oxyacetyl-[N^ω-(Gly-Arg-Pro-Ala-Lys)-Lys-Arg-Gly-Asp-Phe]phenyl}-4,4,5,5-tetramethylimidazoline [If] | – | 17.99 ± 2.47 mg | 0.60 ± 0.84 ^c |
| 1,3-dioxo-2-{4′-oxyacetyl-[N^ω-(Gly-Arg-Pro-Ala-Lys)-Lys-Arg-Gly-Asp-Ser]phenyl}-4,4,5,5-tetramethylimidazoline | 17.60% | 19.46 ± 1.84 mg | 1.22 ± 1.32 ^b |
| 1,3-dioxo-2-{4′-oxyacetyl-[N^ω-(Pro-Ala-Lys)-Lys-Arg-Gly-Asp-Phe]phenyl}-4,4,5,5-tetramethylimidazoline (K([Lys-Ala-Pro])RGDF; not fully specified (N-terminus); also: 4′-oxyacetylphenyl-1,3-dioxo-4,4,5,5-tetramethylimidazoline (nitronyl nitroxide) conjugate, attachment amine not clear) [Il] | 22.62% | 19.32 ± 2.56 mg | 0.50 ± 0.53 ^c |
| 1,3-dioxo-2-{4′-oxyacetyl-[N^ω-(Pro-Ala-Lys)-Lys-Arg-Gly-Asp-Ser]phenyl}-4,4,5,5-tetramethylimidazoline (K([Lys-Ala-Pro])RGDS; not fully specified (N-terminus); also: 4′-oxyacetylphenyl-1,3-dioxo-4,4,5,5-tetramethylimidazoline (nitronyl nitroxide) conjugate, attachment amine not clear) [Ij] | 27.22% | 19.45 ± 1.79 mg | 0.90 ± 1.10 ^c |
| 1,3-dioxo-2-{4′-oxyacetyl-[N^ω-(Pro-Ala-Lys)-Lys-Arg-Gly-Asp-Val]phenyl}-4,4,5,5-tetramethylimidazoline (K([Lys-Ala-Pro])RGDV; not fully specified (N-terminus); also: 4′-oxyacetylphenyl-1,3-dioxo-4,4,5,5-tetramethylimidazoline (nitronyl nitroxide) conjugate, attachment amine not clear) [Ik] | 11.13% | 22.25 ± 2.25 mg | 0.56 ± 0.53 ^c |
